The target in experiment [1] is T1, α2 (presynaptic α)-adrenoceptor (Rattus norvegicus, UniProt P22909).
T1 construct: from tissue; host or cells: rat vas deferens (desheathed, field stimulated)
T1 sequence (P22909 1-465): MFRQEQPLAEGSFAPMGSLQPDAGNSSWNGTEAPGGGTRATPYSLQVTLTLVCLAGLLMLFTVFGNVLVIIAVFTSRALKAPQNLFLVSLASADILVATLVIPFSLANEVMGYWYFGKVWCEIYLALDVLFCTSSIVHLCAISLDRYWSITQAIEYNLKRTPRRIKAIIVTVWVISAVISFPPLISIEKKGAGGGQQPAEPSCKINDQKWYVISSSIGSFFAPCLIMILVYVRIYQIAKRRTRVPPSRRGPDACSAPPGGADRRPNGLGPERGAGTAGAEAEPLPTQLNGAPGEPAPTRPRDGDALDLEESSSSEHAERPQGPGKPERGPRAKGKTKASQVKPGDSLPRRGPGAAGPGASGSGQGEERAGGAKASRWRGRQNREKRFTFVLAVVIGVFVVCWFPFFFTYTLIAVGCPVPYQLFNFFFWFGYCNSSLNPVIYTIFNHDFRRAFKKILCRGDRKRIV
Briefly: α2-adrenoceptor antagonistic activity on the rat field stimulated vas deferens preparation (clonidine agonist). Format: cell-based. As to conditions: clonidine as agonist, Arunlakshana & Schild; for Kb: read-out: pA2 (α2) (converted); for pA2 (α2): 90 min. The protocol:
The compounds of the invention were tested for their α2 -adrenoceptor antagonistic activity on the rat field stimulated vas deferens preparation using a modification of the method of Drew, Eur.J.Pharmac., 1977, 42, 123-130. The procedure is described below. […] from sexually mature rats were suspended in a 6 ml organ bath in Krebs solution at 37° and bubbled with 5% CO2 in oxygen. Platinum ring electrodes were positioned above and below the tissue for field stimulation, the stimulus parameters being 0.1 Hz 1 ms pulse width at supramaximal voltage. Twitch responses were recorded isotonically with a 0.5 g loading. […] After washing out clonidine, the twitch response quickly recovered and an antagonist was then introduced into the Krebs reservoir. Clonidine concentration-response curves were repeated 90 min after introduction of the antagonist. The concentration of clonidine producing 50% inhibition of twitch before and after introduction of antagonist were obtained and the dose-ratio for clonidine was calculated. Various concentrations of the antagonists were used. […] Chemother., 1959, 14, 48-58 and the values of pA2 and slope were calculated.

Experiment [2] has as its target T2, postsynaptic (α1) α-adrenoceptor (Rattus norvegicus, UniProt P43140).
T2 construct: the isolated anococcygeus muscle of the rat; from tissue; host or cells: rat anococcygeus muscle (male rats, 250-360 g)
T2 sequence (P43140 1-466): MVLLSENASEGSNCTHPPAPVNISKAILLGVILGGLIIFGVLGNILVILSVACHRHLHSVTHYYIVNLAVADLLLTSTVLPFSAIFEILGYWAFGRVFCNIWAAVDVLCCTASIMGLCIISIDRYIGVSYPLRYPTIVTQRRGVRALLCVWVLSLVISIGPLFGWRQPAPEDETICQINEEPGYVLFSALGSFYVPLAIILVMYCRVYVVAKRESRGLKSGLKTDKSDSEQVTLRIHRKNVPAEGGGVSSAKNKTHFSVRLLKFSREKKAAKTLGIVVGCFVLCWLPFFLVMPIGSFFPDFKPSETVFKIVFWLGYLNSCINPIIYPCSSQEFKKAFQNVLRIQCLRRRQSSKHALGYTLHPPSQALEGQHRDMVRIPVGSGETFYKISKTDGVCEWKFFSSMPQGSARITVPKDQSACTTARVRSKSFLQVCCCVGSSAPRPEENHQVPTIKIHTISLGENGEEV
In words: postsynaptic (α1) antagonistic activity on the isolated anococcygeus muscle of the rat (phenylephrine or methoxamine agonist). Format: cell-based. Particulars: rat anococcygeus muscle; phenylephrine or methoxamine as agonist; α1; read-out: pA2 (postsynaptic) (converted). The text has this:
(§1) The postsynaptic(α1)antagonistic activity can be evaluated by a number of different methods. One method involves assessing the activity on the isolated anococcygeus muscle of the rat. The method is based on that of Gillespie, Br.J.Pharmac., 1972, 45, 404-416. In the procedure male rats (250-360 g) are killed by a blow on the head and bled. The two anococcygeus muscles are removed from their position in the midline of the pelvic cavity, where they arise from the upper coccygeal vertebrae. The muscles are suspended in 5 ml organ baths in Krebs solution containing 10^-4 M ascorbic acid, to prevent drug oxidation. The tissues are gassed with a 95% oxygen, 5% CO2 mixture and maintained at 37°. Longitudinal muscle contractions are recorded using isotonic transducers. Cumulative dose response curves are then obtained to phenylephrine or in some cases methoxamine, both agents being postsynaptic alpha adrenoceptor agonists. The concentration range of phenylephrine or methoxamine used is 0.02 to 0.8 μg.ml^-1. The agonist is then washed from the bath and the test drug added to the bathing medium at a concentration of 10^-6 M. After 30 min. equilibration with the test drug a further agonist dose response curve is obtained. The washing, equilibration and agonists dosing procedures are then repeated using 10^-5 M and 10^-4 M solutions of the test drug. Estimates of the pA2 value for the test drug as an antagonist of phenylephrine or methoxamine were made from the agonist dose-ratios using the method of Arunlakshana & Schild, Br.J.Pharmac.Chemother., 1959, 14, 48-58.

Experiment [3] deals with postsynaptic (α1) α-adrenoceptor. The description is as above. In kind it is cell-based.
Source text: as §1

Experiment [4] relates to human blood platelets. Briefly: inhibition of adrenaline-induced aggregation in vitro of human blood platelets. In kind it is cell-based.
The test system of experiment [5] is hyperglycaemia induced by the α2 agonist clonidine. Briefly: inhibition of clonidine-induced hyperglycaemia in rats. In kind it is in vivo, rat. As to conditions: 10 mg/kg, clonidine 15 μg/kg subcutaneous.

Each structure is given as a SMILES string.

Regarding `CCCS(=O)(=O)N[C@@H]1CCN2CCc3ccccc3[C@@H]2C1` (relative stereo) [2β-(n-propanesulphonamido-1,3,4,6,7,11bα-hexahydro-2H--benzo[a]quinolizine, reference compound], the Kb in experiment [1] was 316 nM.
Take `CCS(=O)(=O)N(C)[C@@H]1CCN2CCc3ccccc3[C@@H]2C1` (relative stereo) [B, N-Methyl-N-(1,3,4,6,7,11bα-hexahydro-2H-benzo[a]quinolizin-2β-yl)ethanesulphonamide]: the results for the Kb in experiment [2] and in experiment [1] were 676 nM and 20 nM, respectively. For the same compound, in experiment [3], the α2 selectivity was 34.
As for `CCCS(=O)(=O)N(C)[C@@H]1CCN2CCc3ccccc3[C@@H]2C1` (relative stereo) [C, N-Methyl-N-(1,3,4,6,7,11bα-hexahydro-2H-benzo[a]quinolizin-2β-yl)propan-1-sulphonamide], the Kb is 724 nM in experiment [2] and 5.01 nM in experiment [1]. The compound also yielded a α2 selectivity in experiment [3] of 144. Further, the “inhibition of the aggregation in vitro of human blood platelets induced by adrenaline” value in experiment [4] was “inhibit the aggregation”.
Turning to `CN([C@@H]1CCN2CCc3ccccc3[C@@H]2C1)S(=O)(=O)c1ccccc1` (relative stereo) [D, N-methyl-N-(1,3,4,6,7,11bα-hexahydro-2H-benzo[a]quinolizin-2β-yl)benzenesulphonamide], the Kb in experiment [2] was 457 nM; in experiment [1], 3.98 nM. Further, the α2 selectivity in experiment [3] was found to be 102. Besides, the “inhibition of the hyperglycaemia induced by clonidine” value in experiment [5] is reported as “inhibited the hyperglycaemia”.
Turning to `CCN([C@@H]1CCN2CCc3ccccc3[C@@H]2C1)S(C)(=O)=O` (relative stereo) [E, N--Ethyl-N--(1,3,4,6,7,11bα-hexahydro-2H--benzo[a]quinolizin-2-62-yl)methanesulphonamide], the Kb in experiment [2] was 562 nM; in experiment [1], 15.8 nM. The α2 selectivity in experiment [3] was 35.5.
On to `Cc1ccc(S(=O)(=O)N(C)[C@@H]2CCN3CCc4ccccc4[C@@H]3C2)cc1` (relative stereo) [F, N-Methyl-N-(1,3,4,6,7,11bα-hexahydro-2H-benzo[a]quinolizin-2β-yl)toluene-4-sulphonamide], for which the Kb in experiment [2] is 468 nM; in experiment [1], 7.94 nM. This compound registered a α2 selectivity in experiment [3] of 59.
The matching figures for `COc1ccc(S(=O)(=O)N(C)[C@@H]2CCN3CCc4ccccc4[C@@H]3C2)cc1` (relative stereo) [G, N-Methyl-N-(1,3,4,6,7,11bα-hexahydro-2H-benzo[a]quinolizin-2β-yl)-4-methoxybenzenesulphonamide]: 316 nM, 7.94 nM and 40.
The matching figures for `CN([C@@H]1CCN2CCc3ccccc3[C@@H]2C1)S(=O)(=O)c1ccc(Cl)cc1` (relative stereo) [H, N-Methyl-N-(1,3,4,6,7,11bα-hexahydro-2H-benzo[a]quinolizin-2β-yl)-4-chlorobenzenesulphonamide]: 813 nM, 25.1 nM and 32.
Turning to `Cc1ccccc1S(=O)(=O)N(C)[C@@H]1CCN2CCc3ccccc3[C@@H]2C1` (relative stereo) [I, N-Methyl-N-(1,3,4,6,7,11bα-hexahydro-2H-benzo[a]quinolizin-2β-yl)-2-methylbenzenesulphonamide], the Kb in experiment [2] was 537 nM; in experiment [1], 12.6 nM. The compound also showed a α2 selectivity in experiment [3] of 40.
On the same counts, the results for `CN([C@@H]1CCN2CCc3ccccc3[C@@H]2C1)S(=O)(=O)c1ccc(Cl)c(Cl)c1` (relative stereo) [J, N-Methyl-N-(1,3,4,6,7,11bα-hexahydro-2H-benzo[a]quinolizin-2β-yl)-3,4-dichlorobenzenesulphonamide] are 3310 nM, 31.6 nM and 93.
In the case of `CCCCS(=O)(=O)N(C)[C@@H]1CCN2CCc3ccccc3[C@@H]2C1` (relative stereo) [K, N-Methyl-N-(1,3,4,6,7,11bα-hexahydro-2H-benzo[a]quinolizin-2β-yl)-n-butanesulphonamide], the Kb in experiment [2] is 251 nM; in experiment [1], 12.6 nM. Besides, the α2 selectivity in experiment [3] amounted to 19.
As for `CC(C)CS(=O)(=O)N(C)[C@@H]1CCN2CCc3ccccc3[C@@H]2C1` (relative stereo) [L, N-Methyl-N-(1,3,4,6,7,11bα-hexahydro-2H-benzo[a]quinolizin-2β-yl)-isobutanesulphonamide], the Kb in experiment [2] was 324 nM; in experiment [1], 3.16 nM. This compound also came in with a α2 selectivity in experiment [3] of 93. The “inhibition of the hyperglycaemia induced by clonidine” value in experiment [5] is listed as “inhibited the hyperglycaemia”.
For the compound `CCCN([C@@H]1CCN2CCc3ccccc3[C@@H]2C1)S(C)(=O)=O` (relative stereo) [N--(n-Propyl)-N--(1,3,4,6,7,11bα-hexahydro-2H--benzo[a]quinolizin-2β-yl)methanesulphonamide, reference compound], the Kb in experiment [1] was 100 nM.
Turning to `COc1cc2c(cc1OC)[C@@H]1C[C@H](N(C)S(C)(=O)=O)CCN1CC2` (relative stereo) [N--methyl-N--(9,10-dimethoxy-1,3,4,6,7,11bα-hexahydro-2H--benzo[a]quinolizin-2β-yl)-methanesulphonamide, reference compound], the Kb in experiment [1] was 158 nM.
On the same count and under the same terms, with `O=C(Nc1ccccc1)NC1CCN2CCc3ccccc3C2C1` (centres unmarked) [1-(1,3,4,6,7,11b-hexahydro-2H benzo[a]quinolizin-2yl)-3-phenyl urea, reference compound] the figure was 3980 nM; with `S=C(Nc1ccccc1)NC1CCN2CCc3ccccc3C2C1` (centres unmarked) [1-(1,3,4,6,7,11b-hexahydro-2H--benzo[a]quinolizin-2yl)-3-phenylthiourea, reference compound], 2510 nM; with `CS(=O)(=O)NC1CCN2CCc3ccccc3C2C1` (centres unmarked) [2-methanesulphonamido-1,3,4,6,7,11b-hexahydro-2H--benzo[a]quinolizine, reference compound], 126 nM.
For the compound `O=S(=O)(NC1CCN2CCc3ccccc3C2C1)c1ccccc1` (stereo not drawn) [2β-phenylsulphonamido-1,3,4,6,7,11b-hexahydro-2H--benzo[a]quinolizine, reference compound], in experiment [1], the “pA2 (α2)” value came out at 6.4.
Consider `CCS(=O)(=O)NC1CCN2CCc3ccccc3C2C1` (centres unmarked) [2βethanesulphonamido-1,3,4,6,7,11b-hexahydro-2H--benzo[a]quinolizine, reference compound], for which the “pA2 (α2)” value in experiment [1] amounted to 5.3.

The values are drawn from patent US4454139A, “α2 -Adrenoceptor antagonistic benzoquinolizines” (John Wyeth & Brother, Limited, priority 1980, dated 1984).
